Reference: publication PMC7570497, “Design, Synthesis and Functional Analysis of Cyclic Opioid Peptides with Dmt-Tic Pharmacophore” (Molecules, 2020)
Bridge positions count the residues as written; N and C are the ends. Square brackets hold non-standard residues; d marks the D form. Peptide text beside a SMILES is read from it. Phe(2,4-F2) = N[C@@H](Cc1ccc(F)cc1F)C(=O)O; d2Nal = N[C@H](Cc1ccc2ccccc2c1)C(=O)O; Dmt = Cc1cc(O)cc(C)c1C[C@H](N)C(=O)O; Tic = O=C(O)[C@@H]1Cc2ccccc2CN1; dDap = NC[C@@H](N)C(=O)O

How the values were obtained:
human KOR = target: T1, human KOR (Homo sapiens, UniProt P41145); experiment: Calcium mobilization assay, agonist mode, KOR; assay type: cell-based; conditions: for KOR pEC50 (CL95%) / KOR α ± SEM (efficacy, intrinsic activity): CHO cells co-expressing human KOR and Gαqi5, inactive = inactive up to 10 μM, n ≥ 5; for KOR pEC50 (CL95%): Fluo-4 AM, reference agonist dynorphin A, mean ± SEM; for KOR α ± SEM (efficacy, intrinsic activity): ratio of peptide Emax to Emax of dynorphin A
T1 construct: expressed in transfected cells; host or cells: CHO cells (gift from Prof. Girolamo Calo, Ferrara University)
T1 sequence (P41145 whole entry): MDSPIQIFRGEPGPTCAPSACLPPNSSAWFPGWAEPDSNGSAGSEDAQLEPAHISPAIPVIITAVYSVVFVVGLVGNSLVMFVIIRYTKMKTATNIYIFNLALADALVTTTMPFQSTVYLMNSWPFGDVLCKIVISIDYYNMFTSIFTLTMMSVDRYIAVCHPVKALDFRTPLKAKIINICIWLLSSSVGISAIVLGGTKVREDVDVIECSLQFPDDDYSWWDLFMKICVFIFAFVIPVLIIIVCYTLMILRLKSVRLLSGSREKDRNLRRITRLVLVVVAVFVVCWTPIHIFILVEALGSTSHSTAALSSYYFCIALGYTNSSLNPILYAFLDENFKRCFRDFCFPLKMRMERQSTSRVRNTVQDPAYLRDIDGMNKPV
Description: (§1) Calcium mobilization assay was performed as reported previously. CHO cells stably co-expressing human MOR or KOR and the C-terminally modified Gαqi5 and CHO cells co-expressing DOR and the GαqG66Di5 protein were used for the tests. Briefly, cells incubated for 24 h in 96-well black, clear-bottom plates were loaded with medium supplemented with probenecid (2.5 mmol/L), calcium-sensitive fluorescent dye Fluo-4 AM (3 μmol/L) and pluronic acid (0.01%) and kept at 37 °C for 30 min. Following aspiration of the loading solution and a washing step, serial dilutions of peptide stock solutions were added. Cells without peptides were treated as the control. […] Ligand efficacy was expressed as intrinsic activity (α) calculated as a ratio of the peptide Emax to Emax of the standard agonist.

human MOR = target: T2, human MOR (Homo sapiens, UniProt P35372); experiment: Calcium mobilization assay, agonist mode, MOR; assay type: cell-based; conditions: for MOR α ± SEM (efficacy, intrinsic activity): ratio of peptide Emax to Emax of dermorphin
T2 construct: expressed in transfected cells; host or cells: CHO cells (gift from Prof. Girolamo Calo, Ferrara University)
T2 sequence (P35372 whole entry): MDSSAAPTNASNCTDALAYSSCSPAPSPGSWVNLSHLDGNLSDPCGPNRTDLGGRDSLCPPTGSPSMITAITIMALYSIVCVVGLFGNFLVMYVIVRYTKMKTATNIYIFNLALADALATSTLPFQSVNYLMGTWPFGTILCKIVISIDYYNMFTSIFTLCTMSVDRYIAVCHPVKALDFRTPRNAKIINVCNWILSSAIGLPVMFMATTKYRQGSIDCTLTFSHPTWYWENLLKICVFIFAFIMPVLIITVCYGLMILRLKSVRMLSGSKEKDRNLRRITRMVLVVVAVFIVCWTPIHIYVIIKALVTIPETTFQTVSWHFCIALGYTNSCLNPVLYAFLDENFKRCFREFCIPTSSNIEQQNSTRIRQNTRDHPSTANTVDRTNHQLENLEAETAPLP

[1] = Enzymatic stability in rat brain homogenate; assay type: in vitro ADME; conditions: rat brain homogenate 10 mg protein/mL in Tris.HCl 50 mM pH 7.4; 100 μL homogenate + 100 μL peptide (0.5 mM); 37 °C; 60 min; HPLC area %; three independent experiments; read-out: Enzymatic Stability Area [%]: amount of peptide remained after 60 min incubation with rat brain homogenate
Description: The metabolic stability of analogs was assessed in the presence of the rat brain homogenate. All new cyclopeptides remained almost intact after 60 min incubation with the homogenate (Table 1).
Enzymatic degradation studies of the analogs were carried out using rat brain homogenate (10 mg protein/mL). To prepare, the homogenate rat brains were isolated, pooled and homogenized in a Polytron with 20 volumes of Tris.HCl (50 mM, pH 7.4), and the homogenate was then stored at −80°C until use. Aliquots of the homogenate (100 μL) were incubated with 100 μL of peptide (0.5 mM) over 0, 7.5, 15, 22.5, 30, and 60 min at 37 °C, in a final volume of 200 μL. The reaction was stopped at the required time by placing the tube on ice and acidifying the content with 20 μL of HCl (1 M). The aliquots were centrifuged at 20,000× g for 10 min at 4 °C. The supernatants were filtered over Millex-GV syringe filters (Millipore, Billerica, MA, USA) and analyzed by HPLC on a Vydac C18 column (4.6 mm × 250 mm, 5 μm,), using the solvent system of 0.1% TFA in water (A) and 80% acetonitrile in water containing 0.1% TFA (B) and a linear gradient of 0–100% B over 25 min. Three independent experiments for each assay were carried out. The amount of remaining peptide (area %) was calculated.

DOR [2] = target: T3, DOR (Homo sapiens, UniProt P41143); experiment: Calcium mobilization assay, antagonism of DPDPE at DOR
T3 sequence (P41143 whole entry): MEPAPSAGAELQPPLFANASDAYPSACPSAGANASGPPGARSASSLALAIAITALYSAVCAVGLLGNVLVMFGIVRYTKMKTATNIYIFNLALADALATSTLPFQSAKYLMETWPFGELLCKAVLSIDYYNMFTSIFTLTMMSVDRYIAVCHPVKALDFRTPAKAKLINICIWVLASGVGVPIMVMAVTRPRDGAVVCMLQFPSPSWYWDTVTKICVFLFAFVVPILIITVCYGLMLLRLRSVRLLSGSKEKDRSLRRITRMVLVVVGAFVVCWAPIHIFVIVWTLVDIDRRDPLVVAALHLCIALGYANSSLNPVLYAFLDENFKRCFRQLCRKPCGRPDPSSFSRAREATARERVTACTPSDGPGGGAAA

DOR [3] = target: T3, DOR; experiment: Calcium mobilization assay, agonist mode, DOR; assay type: cell-based; design: expressed in transfected cells; host or cells: CHO cells (gift from Prof. Girolamo Calo, Ferrara University); conditions: CHO cells co-expressing DOR and GαqG66Di5, inactive = inactive up to 10 μM, n ≥ 5; for DOR pEC50 (CL95%): Fluo-4 AM, reference agonist DPDPE, mean ± SEM; for DOR α ± SEM (efficacy, intrinsic activity): ratio of peptide Emax to Emax of DPDPE
Description: as §1

[4] = LC-MS elution order in reverse-phase chromatography to estimate lipophilicity; assay type: physicochemical; conditions: LC-MS (XIC); Aeris Peptide XB-C18 and Kinetex Biphenyl columns, identical order on both; gradient 5–80% acetonitrile in water in 10 min, 0.1% HCOOH
Excerpt: The lipophilicity of compounds is often a useful characteristic allowing one to predict or rationalize their interactions with a given receptor [40]. Here, the liquid chromatography–mass spectrometry (LC-MS) procedure was applied to study the elution order of analogs in the reverse-phase chromatography to estimate their lipophilicity. The mixture of peptides 1–6 was run in the same experimental conditions on two types of columns, an Aeris Peptide C18 column and a novel biphenyl stationary phase HPLC column. The biphenyl column can be complementary to a C18 column, as it can engage in π–π interactions with the eluted compound [41]. As expected, peptides were more retained on the biphenyl column, due to the π stacking interactions of their aromatic rings with the solid support.
Figure 1 LC-MS chromatograms (extracted ion currents (XIC)) for peptides 1–6. Panel (A): Aeris Peptide XB-C18 column. Panel (B): Kinetex Biphenyl column. […]
Protected amino acids were purchased from Bachem AG (Bubendorf, Switzerland). p-Methylbenzhydrylamine (MBHA) resin was obtained from Novabiochem (San Diego, CA, USA). Semi-preparative and analytical RP-HPLC was performed using Waters Breeze instrument (Milford, MA, USA) with the dual absorbance detector (Waters 2487) on a Vydac C18 column (22 × 250 mm, 10 μm) and Vydac C18 column (4.6 × 250 mm, 5 μm), respectively. […]

[5] = CHO cells co-expressing human MOR and Gαqi5, inactive = inactive up to 10 μM, n ≥ 5

Compound	KOR pEC50 (CL95%) (human KOR)	KOR α ± SEM (efficacy, intrinsic activity) (human KOR)	EC50 (human MOR)	MOR α ± SEM (efficacy, intrinsic activity) (human MOR; [5])	remaining at 1 h, 0.25 mM [1]	EC50 (human KOR; read-out: KOR pEC50 (CL95%) (converted))	Kb (DOR [2])	DOR pEC50 (CL95%) (DOR [3])	DOR α ± SEM (efficacy, intrinsic activity) (DOR [3])	MOR pEC50 (CL95%) (human MOR; CHO cells co-expressing human MOR and Gαqi5, Fluo-4 AM, reference agonist dermorphin, inactive = inactive up to 10 μM, mean ± SEM, n ≥ 5)	Elution order in reverse-phase chromatography (lipophilicity) [4]
CC1(C)SSC(C)(C)[C@@H](NC(=O)[C@@H](N)Cc2ccc(O)cc2)C(=O)NCC(=O)N[C@@H](Cc2ccccc2)C(=O)N[C@H]1C(=O)O [DPDPE, reference compound]	inactive	inactive	–	–	–	–	–	–	–	–	–
Cc1cc(O)cc(C)c1C[C@H](N)C(=O)N1Cc2ccccc2C[C@H]1C(=O)N[C@@H]1CCCCNC(=O)C[C@@H](C(N)=O)NC(=O)[C@H](Cc2ccccc2)NC(=O)[C@H](Cc2ccccc2)NC1=O [compound 1, Dmt-Tic-c[D-Lys-Phe-Phe-Asp]NH2] (H-[Dmt][Tic][dK]FFD-NH2; lactam 3-6)	–	0.20 ± 0.06	661 nM	0.15 ± 0.02	97.88 ± 0.83%	490 nM	42.7 nM	inactive	inactive	–	–
Cc1cc(O)cc(C)c1C[C@H](N)C(=O)N1Cc2ccccc2C[C@H]1C(=O)N[C@@H]1CCCCNC(=O)C[C@@H](C(N)=O)NC(=O)[C@@H](Cc2ccc3ccccc3c2)NC(=O)[C@H](Cc2ccccc2)NC1=O [compound 2, Dmt-Tic-c[D-Lys-Phe-D-2Nal-Asp]NH2] (H-[Dmt][Tic][dK]F[d2Nal]D-NH2; lactam 3-6)	inactive	inactive	617 nM	0.37 ± 0.05	98.17 ± 0.23%	–	28.2 nM	inactive	inactive	–	–
Cc1cc(O)cc(C)c1C[C@H](N)C(=O)N1Cc2ccccc2C[C@H]1C(=O)N[C@@H]1CCCCNC(=O)C[C@@H](C(N)=O)NC(=O)[C@H](Cc2ccc(F)cc2F)NC(=O)[C@H](Cc2ccccc2)NC1=O [compound 3, Dmt-Tic-c[D-Lys-Phe-2,4F2-Phe-Asp]NH2] (H-[Dmt][Tic][dK]F[Phe(2,4-F2)]D-NH2; lactam 3-6)	–	–	–	–	95.19 ± 0.86%	–	–	–	–	–	–
Cc1cc(O)cc(C)c1C[C@H](N)C(=O)N1Cc2ccccc2C[C@H]1C(=O)N[C@@H]1CNC(=O)C[C@@H](C(N)=O)NC(=O)[C@H](Cc2ccccc2)NC(=O)[C@H](Cc2ccccc2)NC1=O [compound 4, Dmt-Tic-c[D-Dap-Phe-Phe-Asp]NH2] (H-[Dmt][Tic][dDap]FFD-NH2; lactam 3-6)	inactive	inactive	–	inactive	96.21 ± 0.89%	–	2.45 nM	inactive	inactive	inactive	–
Cc1cc(O)cc(C)c1C[C@H](N)C(=O)N1Cc2ccccc2C[C@H]1C(=O)N[C@@H]1CCCCNC(=O)C[C@@H](C(N)=O)NC(=O)[C@H](Cc2ccccc2)NC1=O [compound 5, Dmt-Tic-c[D-Lys-Phe-Asp]NH2] (H-[Dmt][Tic][dK]FD-NH2; lactam 3-5)	inactive	inactive	813 nM	0.3 ± 0.03	96.76 ± 0.91%	–	0.525 nM	inactive	inactive	–	least lipophilic
Cc1cc(O)cc(C)c1C[C@H](NC(=O)[C@@H]1Cc2ccccc2CN1C(=O)[C@@H]1CC(=O)NCCCC[C@@H](NC(=O)[C@@H]2Cc3ccccc3CN2C(=O)[C@@H](N)Cc2c(C)cc(O)cc2C)C(=O)N[C@@H](Cc2ccccc2)C(=O)N1)C(N)=O [compound 6, Dmt-Tic-c[D-Lys-Phe-Asp]-Tic-Dmt-NH2] (H-[Dmt][Tic][dK]FD[Tic][Dmt]-NH2; lactam 3-5)	inactive	inactive	331 nM	0.17 ± 0.20	97.6 ± 1.2%	–	1.1 nM	inactive	inactive	–	–
C[C@@H](NC(=O)[C@@H](N)Cc1ccc(O)cc1)C(=O)N[C@@H](Cc1ccccc1)C(=O)NCC(=O)N[C@@H](Cc1ccc(O)cc1)C(=O)N1CCC[C@H]1C(=O)N[C@@H](CO)C(N)=O [dermorphin, reference compound]	inactive	inactive	–	1.00	–	–	–	inactive	inactive	–	–
CC[C@H](C)[C@H](NC(=O)[C@H](CCCNC(=N)N)NC(=O)[C@H](CCCNC(=N)N)NC(=O)[C@H](CC(C)C)NC(=O)[C@H](Cc1ccccc1)NC(=O)CNC(=O)CNC(=O)[C@@H](N)Cc1ccc(O)cc1)C(=O)N[C@@H](CCCNC(=N)N)C(=O)N1CCC[C@H]1C(=O)N[C@@H](CCCCN)C(=O)N[C@@H](CC(C)C)C(=O)N[C@@H](CCCCN)C(=O)N[C@@H](Cc1c[nH]c2ccccc12)C(=O)N[C@@H](CC(=O)O)C(=O)N[C@@H](CC(N)=O)C(=O)N[C@@H](CCC(N)=O)C(=O)O [dynorphin A, reference compound]	–	–	–	–	–	–	–	–	0.99 ± 0.04	–	–
